Test results reported in ChEMBL document CHEMBL4706669, “Majonoside-R2 extracted from Vietnamese ginseng protects H9C2 cells against hypoxia/reoxygenation injury via modulating mitochondrial function and biogenesis” (2021).
Active and inactive are the calls of the source. The calls are words filed in the database; no cut-off is given here.

How the values were obtained:
[1] = tested on: H9c2; assay: Cardioprotective activity against HR-induced injury in rat H9c2 cells assessed as increase in cell viability at 10 uM by CCK-8 assay relative to control; format: functional
[2] = tested on: H9c2; assay: Protection against HR-induced mitochondrial dysfunction in rat H9c2 cells assessed as mitochondrial membrane potential by measuring TMRE intensity by fluorescence microplate reader (reference value: 98.59 +/- 0.96 %); format: functional, cell-based; settings: dose 9.0 µM
[3] = tested on: H9c2; assay: Protection against HR-induced mitochondrial dysfunction in rat H9c2 cells assessed as increase in cardiolipin content by fluorescence microplate reader; format: functional, cell-based
[4] = tested on: H9c2; assay: Protection against HR-induced mitochondrial dysfunction in rat H9c2 cells assessed as decrease in ROS production by fluorescence microplate reader; format: functional, cell-based
[5] = tested on: H9c2; assay: Cardioprotective activity against HR-induced injury in rat H9c2 cells assessed as increase in cell viability at 0.1 to 90 uM by CCK-8 assay; format: functional, cell-based; settings: dose 0.1-90 µM
[6] = tested on: H9c2; assay: Cardioprotective activity against HR-induced injury in rat H9c2 cells assessed as increase in cell viability at 9 uM by CCK-8 assay relative to control; format: functional
[7] = tested on: H9c2; assay: Induction of mitochondrial biogenesis in rat H9c2 cells with HR-induced injury assessed as increase in NAO intensity by fluorescence microscopic analysis; format: functional, cell-based
[8] = tested on: H9c2; assay: Increase in mitochondrial mass in rat H9c2 cells with HR-induced injury assessed as increase in NAO intensity by fluorescence microscopic analysis; format: functional, cell-based
[9] = Induction of mitochondrial biogenesis in rat H9c2 cells with HR-induced injury assessed as upregulation of PGC1beta mRNA expression relative to GADPH (reference value: 0.981 +/- 0.007); format: functional
[10] = tested on: H9c2; assay: Induction of mitochondrial biogenesis in rat H9c2 cells with HR-induced injury assessed as effect on PGC1alpha mRNA expression; format: functional, cell-based
[11] = tested on: H9c2; assay: Induction of mitochondrial biogenesis in rat H9c2 cells with HR-induced injury assessed as increase in NRF-1 mRNA expression; format: functional, cell-based
[12] = tested on: H9c2; assay: Induction of mitochondrial biogenesis in rat H9c2 cells with HR-induced injury assessed as […] in NRF-2 mRNA expression; format: functional, cell-based
[13] = Induction of mitochondrial biogenesis in rat H9c2 cells with HR-induced injury assessed as upregulation of PPAR expression by immunoblotting (reference value: 0.065 +/- 0.019); format: functional
[14] = Induction of mitochondrial biogenesis in rat H9c2 cells with HR-induced injury assessed as upregulation of ATP5I expression (reference value: 0.998 +/- 0.001); format: functional
[15] = tested on: H9c2; assay: Induction of mitochondrial biogenesis in rat H9c2 cells with HR-induced injury assessed as upregulation of TFAM expression; format: functional, cell-based

Row | Compound | Activity [1] [%] | Activity [2] | Activity [3] | Activity [4] | Activity [5] | Activity [6] [%] | Activity [7] | Activity [8] | fold change (FC) [9] | Activity [10] | Activity [11] | Activity [12] | fold change (FC) [13] | fold change (FC) [14] | Activity [15]
1 | CS(=O)(=O)O.CS(=O)(=O)O.O=S1(=O)CCN(Cc2cc(NCC3CCOCC3)c3[nH]c(-c4ccccc4)cc3c2)CC1 | 84.37 | Active | Active | Active |  |  |  |  |  |  |  |  |  |  | 
2 | CC(C)(O)[C@@H]1CC[C@@](C)([C@H]2CC[C@]3(C)[C@@H]2[C@H](O)C[C@@H]2[C@@]4(C)CC[C@H](O)C(C)(C)[C@@H]4[C@@H](O[C@@H]4O[C@H](CO)[C@@H](O)[C@H](O)[C@H]4O[C@@H]4OC[C@@H](O)[C@H](O)[C@H]4O)C[C@]23C)O1 [MAJONOSIDE R2] |  | Active | Active | Active | Active | 78.09 | Active | Active | 1.113 | inactive | Active | Active | 0.867 | 1.135 | Active
